Earlier results on 2 substances are cited in patent US20100137333A1, “ANTIFUNGAL COMPOSITION AND METHODS FOR USING” (priority 2006, published 2010).

For this series the following is noted: in vivo.

Turning to “poly(vinylpyrrolidone/1-eicosene) [PVPE]”, the dermal toxicity entry was “no demonstrable dermal toxicity”.

Consider “Poly(vinylpyrrolidone/1-hexadecene) [PVPH]”, for which the dermal toxicity result is listed as “no demonstrable dermal toxicity”.
